Measurements reported in patent US8257931B2 (President and Fellows of Harvard College, priority 2005, dated 2012).
“Also recorded” adds a separate entry of the source. Read-outs that look alike come from different tables or passages of the source.

Experiments:
[1] = target: eIF4E (Mus musculus, UniProt P63073); experiment: FP assay competing with fluorogenic eIF4G-derived peptide (KRYDREFLLGF); format: binding; details: for binding affinity / potency in FP assay compared with hit compound 1: relative to hit compound 1
Description: The values indicate the average concentration needed to inhibit 50% of cell proliferation. […] A dual luciferase reporter mRNA was translated for 90 minutes at 30° C. in RedNova reticulocyte lysate (Novagen) in the presence of increasing concentrations of the compound. […] (purple) activity was measured and normalized against an untreated control reaction. The m^7GDP and emetine were used as the positive and negative controls, respectively.
Displacement of Nα-fluorescein tagged eIF4G-derived peptide by a competing ligand causes a large decrease in fluorescence polarization. The non-tagged version of the same eIF4G-derived peptide and DMSO were used as positive and negative control, respectively.

[2] = tested on: A549 and HT29 cell lines; experiment: Alamar Blue growth inhibition, statements covering both A549 and HT29; format: cell-based, human; details: for GI50: Homo sapiens
Description: (§1) Adherent human solid tumor cells were plated and maintained for 3 days in the presence of increasing concentration of the compounds, and cell proliferation was measured by alamar blue assay, where 10% of commercially available solution is added to the cell medium and measure fluorescence in 96-well plates at wavelength of 530 nm excitation and 590 nm emission. The data calculations were carried out as previously described.
(§2) Compounds were further tested for cell growth inhibition in a human lung cancer cell line (A549) and conlon cancer cell line (HT29). The Alamar Blue assay, which specifically measures the inhibition of cell proliferation, was used to assess the GI50's of the compounds.

[3] = target: T1, eIF4E/eIF4G interaction (Mus musculus, UniProt P63073); experiment: Fluorescence polarization assay: binding of fluorescein-labeled eIF4G peptide to eIF4E; set-up: species or system murine; details: triplicate, SD<±10%, read-out: IC50 (μM) (4E/4G FP)
T1 construct: made in house; host or cells: E. coli
Description: We adapted this assay to a microwell plate format and used it to screen the 16,000 compound Chembridge DiverSet E library. […] For screening and subsequent peptide binding assays measurements of fluorescence polarization were made using an LJL Analyst plate reader. For the screening assay a solution containing approximately 5 μM meIF4E, 60 nM labeled peptide, 0.05% bovine γ-globulin, and 2 mM DTT in a buffer composed of 50 mM sodium phosphate and 50 mM potassium chloride at pH 6.5 was used. […] The curve fitting for estimation of binding constants used equations derived by Roehrl et al.^22 Measurements of fluorescence polarization and anisotropy were made in black 384-well plates (Corning) using an Analyst plate reader (LJL Biosystems) Compounds were transferred to plates during the screening using a custom-built Seiko pin transfer robot at the Institute for Chemistry and Cell Biology (ICCB) at Harvard Medical School.
A fluorescence polarization (FP) assay was developed to measure binding of a peptide containing the conserved eIF4E-binding motif to eIF4E.
The assay was adapted to a microwell plate format and used to screen a number of libraries comprised of small molecule libraries for potential eIF4E/eIF4G interaction inhibitors.

[4] = tested on: cap-dependent translation; experiment: In vitro translation of dual luciferase reporter in rabbit reticulocyte lysate, cap-dependent Renilla luciferase; format: biochemical
Source text: (§3) To determine the relative effects of the compound on cap dependent and independent translation, we utilized a bicistronic mRNA construct containing the gene for Renilla luciferase under the control of the cap and the message for firefly luciferase under the control of the cricket paralysis virus IRES (FIG. 2A). […] A dicistronic reporter construct containing the Renilla reniformis luciferase sequence after the 5′ UTR followed by the CrPV IRES and the firefly luciferase sequence was used to build a reporter construct plasmid. The reporter construct plasmid was linearized with BamHI and transcribed in vitro with an ARCA cap using the mMessage Machine T7 Ultra Kit (Ambion). In vitro translation reactions were carried out using Red Nova reticulocyte lysate (Novagen) with 2 mM magnesium acetate and […] potassium acetate, incubated at 30 degrees C. for 90 minutes. Translation of reporter genes was measured using the Dual-Glo luciferase assay (Promega) in a Wallac Victor^2 plate reader.
(§4) In addition to structurally characterizing the binding of our hit compounds, biological activities of the compounds was evaluated. […] To test this hypothesis in vitro, a translation assay in rabbit reticulocyte lysate was carried out. A dicistronic reporter construct containing a cap-dependent Renilla luciferase and a cricket paralysis virus IRES driven firefly luciferase was utilized to measure the relative affect of a compound on both translation mechanisms.
(§5) A functional cell free assay determined the relative effects of the compounds on cap- and IRES-dependent translations. This assay involved the in vitro translation of bicistronic mRNA reporter construct encoding for renilla luciferase in a cap-dependent and for firefly luciferase in a cap independent manner, the later driven by cricket paralysis virus IRES.

[5] = tested on: A549 lung cancer cells; experiment: A549 proliferation, sulforhodamine B (SRB) assay; format: cell-based, human; details: sulforhodamine B assay, triplicate
Description: FIG. 28 is a graph showing the results of a cell proliferation assay. A549 cells, which are human lung cancer cells, are grown in plates for five days in medium containing 5% FCS and compound. The number of cells is quantified by staining with sulforhodamine B.

[6] = tested on: HT29 colon cancer cells; experiment: HT29 cell growth, Alamar Blue assay; format: cell-based; details: Homo sapiens, HT-29; Alamar Blue assay
Description: as §1
Med. Chem. Lett. 14: 2547-50, 2004. […] .
as §2

[7] = tested on: human lung cancer cell line (A549); experiment: A549 cell growth inhibition, Alamar Blue assay; format: cell-based
Description: as §1, §2

[8] = tested on: IRES driven translation; experiment: In vitro translation of dual luciferase reporter in rabbit reticulocyte lysate, CrPV IRES driven firefly luciferase; format: biochemical
Source text: as §3, §4, §5

[9] = HT29 or A549, at least one, read-out: GI50 in at least one cell line
[10] = HT29 and A549, both, read-out: GI50 in both cell lines
[11] = Homo sapiens, A549, Table 1 of b280
[12] = Homo sapiens, A549, Table 1 of b347

Sequence of eIF4E (P63073 whole entry): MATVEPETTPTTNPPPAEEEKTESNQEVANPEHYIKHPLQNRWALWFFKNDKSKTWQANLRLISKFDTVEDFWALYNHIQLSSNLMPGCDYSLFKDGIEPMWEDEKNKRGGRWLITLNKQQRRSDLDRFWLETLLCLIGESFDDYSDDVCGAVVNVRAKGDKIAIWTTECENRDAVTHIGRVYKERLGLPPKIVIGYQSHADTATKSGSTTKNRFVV
T1 sequence (P63073 whole entry): as above

O=C(O)C(Cc1ccccc1[N+](=O)[O-])=NNc1nc(-c2ccccc2)cs1 [4a]
binding affinity / potency in FP assay compared with hit compound 1 [1]: dramatic decrease
growth inhibition of both cell lines compared with hit compound 1 ([2]; HT29 and A549): dramatic decrease

O=C(O)C(Cc1ccccc1)=NNc1nc(-c2ccccc2)cs1 [4b]
IC50 ([3]; Table 1 of b280): > 600 µM
cap-dependent translation (Renilla luciferase) [4]: Inhibition of cap-dependent translation
GI50 ([5]; Table 1): 4 µM

O=C(O)C(Cc1ccccc1[N+](=O)[O-])=NNc1nc(-c2ccc3ccccc3c2)cs1 [4c, 2-[(4-Naphthalen-2-yl-thiazol-2-yl)-hydrazono]-3-(2-nitro-phenyl)-propionic acid]
GI50 [2, 9]: < 10 µM

O=C(O)C(Cc1ccccc1[N+](=O)[O-])=NNc1nc(-c2ccc3c(c2)OCCO3)cs1 [4d, 2-{[4-(2,3-Dihydro-benzo[1,4]dioxin-6-yl)-thiazol-2-yl]-hydrazono}-3-(2-nitro-phenyl)-propionic acid]
binding affinity / potency in FP assay compared with hit compound 1 [1]: more than 2 fold
GI50 [2, 9]: < 10 µM

O=C(O)C(Cc1ccccc1[N+](=O)[O-])=NNc1nc(-c2ccc3c(c2)OCCCO3)cs1 [4e, 2-{[4-(3,4-Dihydro-2H-benzo[b][1,4]dioxepin-7-yl)-thiazol-2-yl]-hydrazono}-3-(2-nitro-phenyl)-propionic acid]
binding affinity / potency in FP assay compared with hit compound 1 [1]: equipotent
GI50 [6]: 45 µM
GI50 [7]: 24 µM
GI50 [2, 10]: > 24 µM

O=C(O)C(Cc1ccccc1[N+](=O)[O-])=NNc1nc(-c2ccc(-c3ccccc3)cc2)cs1 [4f, 2-[(4-Biphenyl-4-yl-thiazol-2-yl)-hydrazono]-3-(2-nitro-phenyl)-propionic acid]
GI50 [2, 9]: < 10 µM

O=C(O)C(Cc1ccccc1[N+](=O)[O-])=NNc1nc(-c2ccc(C3CCCCC3)cc2)cs1 [4g, 2-{[4-(4-Cyclohexyl-phenyl)-thiazol-2-yl]-hydrazono}-3-(2-nitro-phenyl)-propionic acid]
potency in FP assay compared with 4f ([1]; relative to 4f): 2 fold
cap-dependent translation (Renilla luciferase) [4]: Inhibition of cap-dependent translation; also recorded: inhibit dose-dependently; also recorded: more effective
IRES driven / cap-independent translation (firefly luciferase) [8]: enhance
GI50 [2, 9]: < 10 µM

O=C(O)C(Cc1ccccc1[N+](=O)[O-])=NNc1nc(-c2ccc(N3CCOCC3)cc2)cs1 [4h, 2-{[4-(4-Morpholin-4-yl-phenyl)-thiazol-2-yl]-hydrazono}-3-(2-nitro-phenyl)-propionic acid]
binding affinity / potency in FP assay compared with hit compound 1 [1]: significantly less active
GI50 [2, 10]: > 24 µM

O=C(O)C(Cc1ccccc1[N+](=O)[O-])=NNc1nc(-c2ccc(N3CCCC3)cc2)cs1 [4i, 3-(2-Nitro-phenyl)-2-{[4-(4-pyrrolidin-1-yl-phenyl)-thiazol-2-yl]-hydrazono}-propionic acid]
binding affinity / potency in FP assay compared with hit compound 1 [1]: significantly less active
GI50 [2, 10]: > 24 µM

O=C(O)C(Cc1ccccc1[N+](=O)[O-])=NNc1nc(-c2ccc(N=Nc3ccccc3)cc2)cs1 [4j]
binding affinity / potency in FP assay compared with hit compound 1 [1]: ~3 fold

O=C(O)/C(Cc1ccccc1)=N\Nc1nnc(-c2ccccc2)s1 [Z-16, 3-Phenyl-2-[(5-phenyl-[1,3,4]thiadiazol-2-yl)-hydrazono]-propionic acid]
IC50 ([3]; Table 1 of b280): > 600 µM
IC50 ([3]; Table 1 of b347): > 600 µM
GI50 [5, 11]: > 10 µM
GI50 [5, 12]: > 10 µM

O=C(O)/C(Cc1ccccc1)=N/Nc1ccc(-c2ccccc2)nn1 [Z-17, 3-Phenyl-2-[(6-phenyl-pyridazin-3-yl)-hydrazono]-propionic acid]
IC50 ([3]; Table 1 of b280): > 600 µM
GI50 [5, 11]: > 10 µM

O=C(O)/C(Cc1ccccc1)=N/NC(=S)NCc1ccccc1 [compound 8]
IC50 ([3]; Table 1 of b280): 550 µM
IC50 ([3]; Table 1 of b347): 550 µM
GI50 [5, 11]: > 10 µM
GI50 [5, 12]: > 10 µM

O=C(Cc1ccccc1)NNc1nc(-c2ccccc2)cs1 [compound 12]
IC50 ([3]; Table 1 of b347): > 600 µM
GI50 [5, 12]: > 20 µM

O=[N+]([O-])c1ccccc1CC(CO)NNc1nc(-c2ccc(Cl)c(Cl)c2)cs1 (stereo not drawn) [compound 14, 2-{N′-[4-(3,4-Dichloro-phenyl)-thiazol-2-yl]-hydrazino}-3-(2-nitro-phenyl)-propan-1-ol]
IC50 ([3]; Table 1 of b347): > 600 µM
GI50 [5, 12]: 4 µM

CC[C@H]1CN2CCc3cc(OC)c(OC)cc3[C@@H]2C[C@@H]1C[C@H]1NCCc2cc(OC)c(OC)cc21 [emetine, reference compound]
cap-dependent translation (Renilla luciferase) [4]: inhibits translation of both messages equally well
IRES driven / cap-independent translation (firefly luciferase) [8]: inhibits translation of both messages equally well

Cn1c[n+]([C@@H]2O[C@H](COP(=O)(O)OP(=O)([O-])O)[C@@H](O)[C@H]2O)c2nc(N)[nH]c(=O)c21 [m7GDP, reference compound]
cap-dependent translation (Renilla luciferase) [4]: specifically inhibits the cap-dependent message
